{"source": "patent US20250100977A1", "about": "“MERCAPTOPYRIMIDINE COMPOUNDS THAT INHIBIT NONHOMOLOGOUS END JOINING AND METHODS THEREOF” (INDIAN INSTITUTE OF SCIENCE, priority 2021, published 2025)", "key": {"Nalm6": {"tested_on": "Nalm6", "experiment": "Cytotoxicity (viable cells) in Nalm6", "type": "cell-based", "conditions": "Homo sapiens, NALM-6; Table 1; 48 h; read-out: IC50 in cancer cell lines, Nalm6", "method": "(§1) The compounds of the present invention were screened initially in leukemic and cervical cancer cell lines (Table 1). […] In cervical cancer cell line HeLa, IC50 was 5 and 2 μM, respectively for SCR116 and SCR132 (FIG. 5A-B).\n(§2) Ligase IV specificity of the compounds of the present invention inside the cells were also determined using Ligase IV knock out (KO) cell line N114 compared to the wild type Nalm6 (Table 2, FIGS. 5C, D, E and F). […] Table 1 showing IC50 of SCR7 derivatives in cancer cell lines Nalm6 and HeLa. IC50 was calculated using GraphPad Prism software from the percentage of viable cells following treatment with the compounds at 48 h. Table 2 showing IC50 of SCR116 and SCR132 in a panel of 16 cancer cell lines."}, "HeLa": {"tested_on": "HeLa", "experiment": "Cytotoxicity (viable cells) in HeLa", "type": "cell-based", "conditions": "Homo sapiens, HeLa, 48 h, Table 1; 48 h; read-out: IC50 in cancer cell lines, HeLa", "method": "as §1, §2"}, "rat testicular extracts": {"tested_on": "rat testicular extracts", "experiment": "Inhibition of end joining of rat testicular extracts (NHEJ)", "type": "biochemical", "conditions": "500 μM; rat testicular extract", "method": "The compounds of the present invention were tested for their effects on inhibition of DNA end joining reactions using rat tissue extracts and purified DNA Ligase IV/XRCC4. Rat testicular extracts were prepared from testes of 4-6 week old male Wistar rats, Rattus norvegicus using ammonium sulphate precipitation method. To determine end joining of cell-free extracts, radiolabeled double-stranded (ds) oligomeric DNA substrate was incubated with rat testicular extract at 25° C. in suitable NHEJ buffer. Extracts were incubated for 30 min with the compounds of Formula I (01-41, 500 μM) as prepared in Example 1, and then radioactive DNA substrate was added to the reaction mixture and incubated for 1 h at 25° C. Reactions were stopped using EDTA, and products were purified using phenol: chloroform extraction and loaded on denaturing polyacrylamide gel. […] Joining efficiency was calculated using the intensity of product bands (150 bp or higher) in individual lanes in Multi Gauge software as compared to control (lanes 2,3). Lane 1 denotes radioactive substrate in absence of protein or inhibitor, while M denotes radiolabeled 50 bp DNA ladder.\n(§3) Effects of these compounds on NHEJ and Ligase IV mediated joining were evaluated (FIG. 4A-K). The reactions were terminated by EDTA (10 mM), products were purified using phenol/chloroform, precipitated with chilled ethanol and glycogen, and resolved on 8% denaturing PAGE. The gel was dried, exposed, and signal was detected using phosphor Imager FLA9000 (Fuji, Japan), and quantified in MultiGauge software expressed as Photo Stimulated Luminescence Units (PSLU). Inhibition of end joining was reported at 200 μM and 100 μM, respectively for SCR116 and SCR132 (FIGS. 4A, B, C and D), with >50% inhibition at 200 and 100 μM concentrations, respectively. […] FIG. 4K depict the purification profile of Ligase IV and XRCC4. Further FIGS. 4L-M represent inhibition of end joining catalysed by (FIG. 4L) purified Ligase III/XRCCI in presence of SCR116 and SCR132 (50, 100, 200, 500, 1000 μM) and (FIG. 4M) by purified Ligase I in presence of increasing concentrations of SCR116 and SCR132 (10, 50, 100, 200, 500, 1000 μM)."}, "DNA Ligase IV/XRCC4": {"molecular_target": "T1, DNA Ligase IV/XRCC4 (Homo sapiens, UniProt P49917)", "T1 construct": "made in house; host or cells: bacteria", "T1 sequence (P49917 whole entry)": "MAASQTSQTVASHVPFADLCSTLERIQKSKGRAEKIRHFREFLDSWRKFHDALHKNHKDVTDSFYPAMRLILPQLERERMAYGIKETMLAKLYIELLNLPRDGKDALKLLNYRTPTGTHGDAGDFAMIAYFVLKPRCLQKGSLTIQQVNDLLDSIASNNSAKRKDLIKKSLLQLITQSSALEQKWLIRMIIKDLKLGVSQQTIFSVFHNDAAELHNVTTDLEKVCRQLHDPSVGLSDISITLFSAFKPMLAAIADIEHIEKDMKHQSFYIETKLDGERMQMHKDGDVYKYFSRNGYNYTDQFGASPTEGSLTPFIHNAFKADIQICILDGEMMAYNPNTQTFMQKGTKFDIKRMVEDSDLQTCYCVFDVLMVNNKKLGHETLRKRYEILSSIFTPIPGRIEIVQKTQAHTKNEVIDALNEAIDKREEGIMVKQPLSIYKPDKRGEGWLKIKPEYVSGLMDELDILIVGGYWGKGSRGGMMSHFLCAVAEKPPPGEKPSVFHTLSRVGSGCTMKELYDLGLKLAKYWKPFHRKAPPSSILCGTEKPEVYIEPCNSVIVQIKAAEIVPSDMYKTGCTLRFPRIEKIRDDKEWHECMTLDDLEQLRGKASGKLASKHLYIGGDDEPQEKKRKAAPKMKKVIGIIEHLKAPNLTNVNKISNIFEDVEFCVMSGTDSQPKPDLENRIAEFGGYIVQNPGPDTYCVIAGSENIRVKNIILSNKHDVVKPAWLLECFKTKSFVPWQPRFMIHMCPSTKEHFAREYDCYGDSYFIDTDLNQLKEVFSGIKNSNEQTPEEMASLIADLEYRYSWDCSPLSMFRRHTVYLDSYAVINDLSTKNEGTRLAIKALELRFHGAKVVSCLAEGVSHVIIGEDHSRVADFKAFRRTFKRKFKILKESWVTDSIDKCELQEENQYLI", "T1 sequence (Q13426 whole entry partner)": "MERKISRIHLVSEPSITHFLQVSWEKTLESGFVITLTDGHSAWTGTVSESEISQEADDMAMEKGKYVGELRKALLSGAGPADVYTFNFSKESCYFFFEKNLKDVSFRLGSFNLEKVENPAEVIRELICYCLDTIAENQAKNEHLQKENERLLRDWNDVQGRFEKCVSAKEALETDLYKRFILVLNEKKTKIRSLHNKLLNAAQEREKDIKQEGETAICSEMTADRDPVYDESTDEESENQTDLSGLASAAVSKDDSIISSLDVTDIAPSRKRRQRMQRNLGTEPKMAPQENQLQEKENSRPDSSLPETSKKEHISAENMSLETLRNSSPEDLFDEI", "experiment": "Inhibition of end joining by purified DNA Ligase IV/XRCC4", "type": "biochemical", "conditions": "200 μM; purified Ligase IV/XRCC4", "method": "The compounds of Formula I were evaluated for their specific inhibition activity towards enzyme DNA Ligase IV. DNA Ligase IV/XRCC4 was purified from bacteria using Ni-NTA column (FIG. 2A), and used for evaluation of inhibition of end joining of the compounds (01-41) at 200 μM (FIGS. 2B, C and D). The compounds were incubated with purified Ligase IV/XRCC4 in suitable NHEJ buffer at 25° C. for 30 min, followed by addition of radiolabeled DNA, and further incubation for 1 h at 25° C. Products were purified using phenol: chloroform and run on denaturing PAGE.\nas §3"}, "[1]": {"tested_on": "Ligase IV knock out (KO) cell line N114", "conditions": "Vartak et al. 2018; cited from earlier work"}}, "data": [{"smiles": "Nc1nc(S)nc(O)c1/N=C/c1cccs1", "note": "[Compound 01, (E)-6-amino-2-mercapto-5-((thiophen-2-ylmethylene)amino)pyrimidin-4-ol]", "values": [{"measurement": "IC50", "setting": "Nalm6", "result": 23.3, "unit": "µM"}, {"measurement": "IC50", "setting": "HeLa", "result": 17.7, "unit": "µM"}]}, {"smiles": "Nc1nc(S)nc(O)c1/N=C/c1ncc[nH]1", "note": "[Compound 04, (E)-5-(((1H-imidazol-2-yl)methylene)amino)-6-amino-2-mercaptopyrimidin-4-ol]", "values": [{"measurement": "IC50", "setting": "Nalm6", "result": 29.7, "unit": "µM"}, {"measurement": "IC50", "setting": "HeLa", "result": 95, "unit": "µM"}]}, {"smiles": "Nc1nc(S)nc(O)c1/N=C/c1cncc2ccccc12", "note": "[Compound 05, 6-amino-5-{[(E)-isoquinolin-4-ylmethylidene]amino}-2-mercaptopyrimidin-4-ol]", "values": [{"measurement": "IC50", "setting": "Nalm6", "result": 18.2, "unit": "µM"}, {"measurement": "IC50", "setting": "HeLa", "result": 11.9, "unit": "µM"}]}, {"smiles": "Nc1nc(S)nc(O)c1/N=C/c1ccccc1O", "note": "[Compound 06, (E)-6-amino-5-((2-hydroxybenzylidene)amino)-2-mercaptopyrimidin-4-ol]", "values": [{"measurement": "IC50", "setting": "Nalm6", "result": 19.4, "unit": "µM"}, {"measurement": "Inhibition of end joining (no joined product observed)", "setting": "rat testicular extracts", "result": "showed inhibition of end joining"}, {"measurement": "IC50", "setting": "HeLa", "result": 17.5, "unit": "µM"}]}, {"smiles": "Nc1nc(S)nc(O)c1/N=C/c1cccnc1", "note": "[Compound 07, (E)-6-amino-2-mercapto-5-((pyridin-3-ylmethylene)amino)pyrimidin-4-ol]", "values": [{"measurement": "IC50", "setting": "Nalm6", "result": 26.6, "unit": "µM"}, {"measurement": "IC50", "setting": "HeLa", "result": 28.2, "unit": "µM"}]}, {"smiles": "Nc1nc(S)nc(O)c1/N=C/c1ccc[nH]1", "note": "[Compound 12, (E)-5-(((1H-pyrrol-2-yl)methylene)amino)-6-amino-2-mercaptopyrimidin-4-ol]", "values": [{"measurement": "IC50", "setting": "Nalm6", "result": 29.5, "unit": "µM"}, {"measurement": "Inhibition of end joining (no joined product observed)", "setting": "rat testicular extracts", "result": "showed inhibition of end joining"}, {"measurement": "IC50", "setting": "HeLa", "result": 48.5, "unit": "µM"}, {"measurement": "Inhibition of end joining compared with control", "setting": "DNA Ligase IV/XRCC4", "result": "significant inhibition of end joining"}]}, {"smiles": "Nc1nc(S)nc(O)c1/N=C/c1nccs1", "note": "[Compound 13, (E)-6-amino-2-mercapto-5-((thiazol-2-ylmethylene)amino)pyrimidin-4-ol]", "values": [{"measurement": "IC50", "setting": "Nalm6", "result": 25.6, "unit": "µM"}, {"measurement": "IC50", "setting": "HeLa", "result": 133, "unit": "µM"}]}, {"smiles": "CC(=O)OCc1ccc(/C=N/c2c(N)nc(S)nc2O)o1", "note": "[Compound 15, (E)-(5-(((4-amino-6-hydroxy-2-mercaptopyrimidin-5-yl)imino)methyl)furan-2-yl)methylacetate]", "values": [{"measurement": "IC50", "setting": "Nalm6", "result": 29.8, "unit": "µM"}, {"measurement": "Inhibition of end joining (no joined product observed)", "setting": "rat testicular extracts", "result": "showed inhibition of end joining"}, {"measurement": "IC50", "setting": "HeLa", "result": 79.8, "unit": "µM"}, {"measurement": "Inhibition of end joining compared with control", "setting": "DNA Ligase IV/XRCC4", "result": "significant inhibition of end joining"}]}, {"smiles": "Nc1nc(S)nc(O)c1/N=C/c1cccc2ccccc12", "note": "[Compound 17, (E)-6-amino-2-mercapto-5-((naphthalen-1-ylmethylene)amino)pyrimidin-4-ol]", "values": [{"measurement": "IC50", "setting": "Nalm6", "result": 29.7, "unit": "µM"}, {"measurement": "IC50", "setting": "HeLa", "result": 29.5, "unit": "µM"}]}, {"smiles": "Nc1nc(S)nc(O)c1/N=C/c1ccnc(Cl)c1", "note": "[Compound 31, (E)-6-amino-5-(((2-chloropyridin-4-yl)methylene)amino)-2-mercaptopyrimidin-4-ol]", "values": [{"measurement": "IC50", "setting": "Nalm6", "result": 4.04, "unit": "µM"}, {"measurement": "Inhibition of end joining (no joined product observed)", "setting": "rat testicular extracts", "result": "showed inhibition of end joining"}, {"measurement": "IC50", "setting": "HeLa", "result": 6.95, "unit": "µM"}]}, {"smiles": "Nc1nc(S)nc(O)c1/N=C/c1ccncc1F", "note": "[Compound 33, (E)-6-amino-5-(((3-fluoropyridin-4-yl)methylene)amino)-2-mercaptopyrimidin-4-ol]", "values": [{"measurement": "IC50", "setting": "Nalm6", "result": 2.24, "unit": "µM"}, {"measurement": "IC50", "setting": "HeLa", "result": 20.8, "unit": "µM"}]}, {"smiles": "N#Cc1ccc(/C=N/c2c(N)nc(S)nc2O)s1", "note": "[Compound 34, (E)-5-(((4-amino-6-hydroxy-2-mercaptopyrimidin-5-yl)imino)methyl)thiophene-2-carbonitrile]", "values": [{"measurement": "IC50", "setting": "Nalm6", "result": 0.95, "unit": "µM"}, {"measurement": "IC50", "setting": "HeLa", "result": 41.4, "unit": "µM"}]}, {"smiles": "Nc1nc(S)nc(O)c1/N=C/c1ccc(Br)s1", "note": "[Compound 35, (E)-6-amino-5-(((5-bromothiophen-2-yl)methylene)amino)-2-mercaptopyrimidin-4-ol]", "values": [{"measurement": "IC50", "setting": "Nalm6", "result": 6.87, "unit": "µM"}, {"measurement": "IC50", "setting": "HeLa", "result": 18.4, "unit": "µM"}]}, {"smiles": "N#Cc1ccc(/C=N/c2c(N)nc(S)nc2O)cc1", "note": "[Compound 36, (E)-4-(((4-amino-6-hydroxy-2-mercaptopyrimidin-5yl)imino)methyl)benzonitrile]", "values": [{"measurement": "IC50", "setting": "Nalm6", "result": 2.88, "unit": "µM"}, {"measurement": "IC50", "setting": "HeLa", "result": 27.2, "unit": "µM"}]}, {"smiles": "CN(C)c1ccc(/C=N/c2c(N)nc(S)nc2O)cc1", "note": "[Compound 37, (E)-6-amino-5-((4-(dimethylamino)benzylidene)amino)-2-mercaptopyrimidin-4-ol]", "values": [{"measurement": "IC50", "setting": "Nalm6", "result": 15.2, "unit": "µM"}, {"measurement": "IC50", "setting": "HeLa", "result": 47.8, "unit": "µM"}]}, {"smiles": "Nc1nc(S)nc(O)c1/N=C/c1ccc2ccccc2n1", "note": "[Compound 38, (E)-6-amino-2-mercapto-5-((quinolin-2-ylmethylene)amino)pyrimidin-4-ol]", "values": [{"measurement": "IC50", "setting": "Nalm6", "result": 25.5, "unit": "µM"}, {"measurement": "IC50", "setting": "HeLa", "result": 45.8, "unit": "µM"}]}, {"smiles": "COc1cc(/C=N/c2c(N)nc(S)nc2O)ccc1O", "note": "[Compound 39, (E)-6-amino-5-((4-hydroxy-3-methoxybenzylidene)amino)-2-mercaptopyrimidin-4-ol]", "values": [{"measurement": "IC50", "setting": "Nalm6", "result": 33.6, "unit": "µM"}, {"measurement": "IC50", "setting": "HeLa", "result": 43.2, "unit": "µM"}]}, {"smiles": "Nc1nc(S)nc(O)c1/N=C/c1cc(Br)ccc1O", "note": "[Compound 40, (E)-6-amino-5-((5-bromo-2-hydroxybenzylidene)amino)-2-mercaptopyrimidin-4-ol]", "values": [{"measurement": "IC50", "setting": "Nalm6", "result": 12.6, "unit": "µM"}, {"measurement": "Inhibition of end joining (no joined product observed)", "setting": "rat testicular extracts", "result": "showed inhibition of end joining"}, {"measurement": "IC50", "setting": "HeLa", "result": 18.3, "unit": "µM"}]}, {"smiles": "Nc1nc(S)nc(O)c1/N=C/c1cc(F)c(O)c(F)c1", "note": "[Compound 41, (E)-6-amino-5-((3,5-difluoro-4-hydroxybenzylidene)amino)-2-mercaptopyrimidin-4-ol]", "values": [{"measurement": "IC50", "setting": "Nalm6", "result": 28.8, "unit": "µM"}, {"measurement": "IC50", "setting": "HeLa", "result": 29.2, "unit": "µM"}]}, {"smiles": "O=c1[nH]c(=S)[nH]c2nc(-c3ccccc3)c(-c3ccccc3)nc12", "note": "[SCR7-pyrazine]", "values": [{"measurement": "Effect in KO in absence of Ligase IV", "setting": "[1]", "result": "nonspecific effects"}]}]}
